# Target: T1, MAGL (Homo sapiens, UniProt Q99685)
# T1 sequence (Q99685 1-303): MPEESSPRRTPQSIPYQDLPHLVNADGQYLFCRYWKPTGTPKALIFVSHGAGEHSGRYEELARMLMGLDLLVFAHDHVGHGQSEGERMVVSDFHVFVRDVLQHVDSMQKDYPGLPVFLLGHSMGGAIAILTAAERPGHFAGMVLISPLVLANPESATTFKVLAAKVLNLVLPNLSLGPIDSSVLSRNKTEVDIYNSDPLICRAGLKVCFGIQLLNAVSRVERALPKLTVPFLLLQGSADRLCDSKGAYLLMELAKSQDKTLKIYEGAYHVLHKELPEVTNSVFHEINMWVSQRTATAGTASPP
# Assay: 2-AG assay (MAGL inhibitory activity, hydrolysis of 2-arachidonoylglycerol to arachidonic acid followed by mass spectrometry)
# Format: biochemical
# Conditions: 8 μM 2-arachidonoylglycerol, 15 min pre-incubation, 30 min incubation at RT, RapidFire MS readout
# In short: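 Human MAGL ([…] final) pre-incubated 15 min at RT with compound in 50 mM TRIS, 1 mM EDTA, 0.01% Tween-20, 2.5% DMSO; 8 μM 2-AG then added for 30 min at RT. Acetonitrile quench with d8-arachidonic acid; arachidonic acid measured by RapidFire SPE–MS/MS, activity from arachidonic acid/d8 ratio.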
row,Structure (SMILES),IC50 [nM]
1,"O=C(N1CC(c2ccc(N3CC[C@H](C(F)(F)F)C3)nc2)C1)N1CC2(CC(n3cnc(C(F)(F)F)n3)C2)C1 [Example 426, [3-[6-[(3S)-3-(trifluoromethyl)pyrrolidin-1-yl]-3-pyridyl]azetidin-1-yl]-[6-[3-(trifluoromethyl)-1,2,4-triazol-1-yl]-2-azaspiro[3.3]heptan-2-yl]methanone]",0.7
2,"O=C(N1CC(c2ccc(N3CC[C@@H](C(F)(F)F)C3)nc2)C1)N1CC2(CC(n3cnc(C(F)(F)F)n3)C2)C1 [Example 427, [3-[6-[(3R)-3-(trifluoromethyl)pyrrolidin-1-yl]-3-pyridyl]azetidin-1-yl]-[6-[3-(trifluoromethyl)-1,2,4-triazol-1-yl]-2-azaspiro[3.3]heptan-2-yl]methanone]",0.53
3,"O=C(N1CC(c2ccc(NCC3CS(=O)(=O)C3)nc2)C1)N1CC2(CC(n3cnc(C(F)(F)F)n3)C2)C1 [Example 428, [3-[6-[(1,1-dioxothietan-3-yl)methylamino]-3-pyridyl]azetidin-1-yl]-[6-[3-(trifluoromethyl)-1,2,4-triazol-1-yl]-2-azaspiro[3.3]heptan-2-yl]methanone]",58.5
4,"NC(=O)c1ccccc1-c1ccc(C2CN(C(=O)N3CC4(CC(n5cnc(C(F)(F)F)n5)C4)C3)C2)cc1 [Example 429, 2-[4-[1-[6-[3-(trifluoromethyl)-1,2,4-triazol-1-yl]-2-azaspiro[3.3]heptane-2-carbonyl]azetidin-3-yl]phenyl]benzamide]",0.66
5,"CS(=N)(=O)c1ccc(CC2CC3(C2)CN(C(=O)N2CC4(CC(n5cnc(C(F)(F)F)n5)C4)C2)C3)cc1 (centres unmarked) [Example 430, [6-[[4-(methylsulfonimidoyl)phenyl]methyl]-2-azaspiro[3.3]heptan-2-yl]-[6-[3-(trifluoromethyl)-1,2,4-triazol-1-yl]-2-azaspiro[3.3]heptan-2-yl]methanone]",17.2
6,"CS(=N)(=O)c1cccc(CC2CC3(C2)CN(C(=O)N2CC4(CC(n5cnc(C(F)(F)F)n5)C4)C2)C3)c1 (centres unmarked) [Example 431, [6-[[3-(methylsulfonimidoyl)phenyl]methyl]-2-azaspiro[3.3]heptan-2-yl]-[6-[3-(trifluoromethyl)-1,2,4-triazol-1-yl]-2-azaspiro[3.3]heptan-2-yl]methanone]",10.3
7,"O=C(N1CC(C23CC(c4nnc(C5CC5)[nH]4)(C2)C3)C1)N1CC2(CC(n3cnc(C4CC4)n3)C2)C1 [Example 432, [6-(3-cyclopropyl-1,2,4-triazol-1-yl)-2-azaspiro[3.3]heptan-2-yl]-[3-[3-(5-cyclopropyl-4H-1,2,4-triazol-3-yl)-1-bicyclo[1.1.1]pentanyl]azetidin-1-yl]methanone]",8.3
8,"O=C(N1CC(C23CC(c4nnc(C5CC5)[nH]4)(C2)C3)C1)N1CC2(CC(n3cnc(C(F)(F)F)n3)C2)C1 [Example 433, [3-[3-(5-cyclopropyl-4H-1,2,4-triazol-3-yl)-1-bicyclo[1.1.1]pentanyl]azetidin-1-yl]-[6-[3-(trifluoromethyl)-1,2,4-triazol-1-yl]-2-azaspiro[3.3]heptan-2-yl]methanone]",44.1
9,O=C(N1CC2(CC(n3cnc(C4CC4)n3)C2)C1)N1CC2(CCN(Cc3ccc(C(F)(F)F)nc3)C2)C1 [Example 434],3.37
10,"O=C(N1CC(C23CC(c4nnc(CC(F)(F)F)o4)(C2)C3)C1)N1CC2(CC(n3cnc(C4CC4)n3)C2)C1 [Example 435, [6-(3-cyclopropyl-1,2,4-triazol-1-yl)-2-azaspiro[3.3]heptan-2-yl]-[3-[3-[5-(2,2,2-trifluoroethyl)-1,3,4-oxadiazol-2-yl]-1-bicyclo[1.1.1]pentanyl]azetidin-1-yl]methanone]",7.69
11,"O=C(N1CC(C23CC(c4nnc(C5CC5)o4)(C2)C3)C1)N1CC2(CC(n3cnc(C4CC4)n3)C2)C1 [Example 436, [3-[3-(5-cyclopropyl-1,3,4-oxadiazol-2-yl)-1-bicyclo[1.1.1]pentanyl]azetidin-1-yl]-[6-(3-cyclopropyl-1,2,4-triazol-1-yl)-2-azaspiro[3.3]heptan-2-yl]methanone]",9.82
12,O=C(N1CC2(CC(n3cnc(C4CC4)n3)C2)C1)N1CC2(CCN(Cc3cnc(C(F)(F)F)cn3)C2)C1 [Example 437],6.37
13,"O=C(N1CC2(CC(n3cnc(C4CC4)n3)C2)C1)N1CC2(CCN(Cc3ccc(C(F)(F)F)nn3)C2)C1 [Example 438, [6-(3-cyclopropyl-1,2,4-triazol-1-yl)-2-azaspiro[3.3]heptan-2-yl]-[7-[[6-(trifluoromethyl)pyridazin-3-yl]methyl]-2,7-diazaspiro[3.4]octan-2-yl]methanone]",14.9
14,"O=C(N1CC2(CC(n3cnc(C4CC4)n3)C2)C1)N1CC2(CCN(Cc3ccc(C(F)(F)F)cn3)C2)C1 [Example 439, [6-(3-cyclopropyl-1,2,4-triazol-1-yl)-2-azaspiro[3.3]heptan-2-yl]-[7-[[5-(trifluoromethyl)-2-pyridyl]methyl]-2,7-diazaspiro[3.4]octan-2-yl]methanone]",3.74
15,"O=C(N1CC(C23CC(CNC4(C(F)(F)F)CC4)(C2)C3)C1)N1CC2(CC(n3cnc(C4CC4)n3)C2)C1 [Example 444, [6-(3-cyclopropyl-1,2,4-triazol-1-yl)-2-azaspiro[3.3]heptan-2-yl]-[3-[3-[[[1-(trifluoromethyl)cyclopropyl]amino]methyl]-1-bicyclo[1.1.1]pentanyl]azetidin-1-yl]methanone]",0.05
16,"O=C(N1CC(C23CC(NCC4(C(F)(F)F)CC4)(C2)C3)C1)N1CC2(CC(n3cnc(C4CC4)n3)C2)C1 [Example 445, [6-(3-cyclopropyl-1,2,4-triazol-1-yl)-2-azaspiro[3.3]heptan-2-yl]-[3-[3-[[1-(trifluoromethyl)cyclopropyl]methylamino]-1-bicyclo[1.1.1]pentanyl]azetidin-1-yl]methanone]",0.3
17,"N=S(=O)(c1ccc(CC2CC3(C2)CN(C(=O)N2CC4(CC(n5cnc(C6CC6)n5)C4)C2)C3)cc1)C(F)(F)F (centres unmarked) [Example 446, [6-(3-cyclopropyl-1,2,4-triazol-1-yl)-2-azaspiro[3.3]heptan-2-yl]-[6-[[4-(trifluoromethylsulfonimidoyl)phenyl]methyl]-2-azaspiro[3.3]heptan-2-yl]methanone]",0.06
18,"N=S(=O)(c1cccc(CC2CC3(C2)CN(C(=O)N2CC4(CC(n5cnc(C6CC6)n5)C4)C2)C3)c1)C(F)(F)F (centres unmarked) [Example 447, [6-(3-cyclopropyl-1,2,4-triazol-1-yl)-2-azaspiro[3.3]heptan-2-yl]−[6-[[3-(trifluoromethylsulfonimidoyl)phenyl]methyl]-2-azaspiro[3.3]heptan-2-yl]methanone]",0.02
19,"CC1(Cc2nnc(-c3ccc(C4CN(C(=O)N5CC6(CC(n7cnc(C8CC8)n7)C6)C5)C4)cc3)[nH]2)CC1 [Example 448, [6-(3-cyclopropyl-1,2,4-triazol-1-yl)-2-azaspiro[3.3]heptan-2-yl]-[3-[4-[5-[(1-methylcyclopropyl)methyl]-4H-1,2,4-triazol-3-yl]phenyl]azetidin-1-yl]methanone]",0.93
20,"O=C(N1CC2(CC(n3cnc(C4CC4)n3)C2)C1)N1CC2(CC(n3cnc(C(F)(F)F)n3)C2)C1 [Example 449, [6-(3-cyclopropyl-1,2,4-triazol-1-yl)-2-azaspiro[3.3]heptan-2-yl]-[6-[3-(trifluoromethyl)-1,2,4-triazol-1-yl]-2-azaspiro[3.3]heptan-2-yl]methanone]",1.37
21,"O=C(N1CC2(CC(n3cnc(C4CC4)n3)C2)C1)N1CC2(CC(n3ncnc3C3CC3)C2)C1 [Example 450, [6-(3-cyclopropyl-1,2,4-triazol-1-yl)-2-azaspiro[3.3]heptan-2-yl]-[6-(5-cyclopropyl-1,2,4-triazol-1-yl)-2-azaspiro[3.3]heptan-2-yl]methanone]",71.4
22,"COc1cc(C(F)(F)F)ccc1CNC1CN(C(=O)N2CC3(CC(n4cnc(C(F)(F)F)n4)C3)C2)C1 [Example 451, [3-[[2-methoxy-4-(trifluoromethyl)phenyl]methylamino]azetidin-1-yl]-[6-[3-(trifluoromethyl)-1,2,4-triazol-1-yl]-2-azaspiro[3.3]heptan-2-yl]methanone]",31.7
23,"O=C(N1CC(c2ccc(N3CC(O)(C(F)(F)F)C3)nc2)C1)N1CC2(CC(n3cnc(C(F)(F)F)n3)C2)C1 [Example 452, [3-[6-[3-hydroxy-3-(trifluoromethyl)azetidin-1-yl]-3-pyridyl]azetidin-1-yl]-[6-[3-(trifluoromethyl)-1,2,4-triazol-1-yl]-2-azaspiro[3.3]heptan-2-yl]methanone]",3.69
24,"CC1(O)CN(c2ccc(C3CN(C(=O)N4CC5(CC(n6cnc(C(F)(F)F)n6)C5)C4)C3)cn2)C1 [Example 453, [3-[6-(3-hydroxy-3-methyl-azetidin-1-yl)-3-pyridyl]azetidin-1-yl]-[6-[3-(trifluoromethyl)-1,2,4-triazol-1-yl]-2-azaspiro[3.3]heptan-2-yl]methanone]",39.4
25,"O=C(N1CC2(CC(NS(=O)(=O)c3cccc(C(F)(F)F)c3)C2)C1)N1CC2(CC(n3cnc(C(F)(F)F)n3)C2)C1 [Example 454, 3-(trifluoromethyl)-N-[2-[6-[3-(trifluoromethyl)-1,2,4-triazol-1-yl]-2-azaspiro[3.3]heptane-2-carbonyl]-2-azaspiro[3.3]heptan-6-yl]benzenesulfonamide]",0.71
26,"CS(=O)(=O)c1ccc(CC2CC3(C2)CN(C(=O)N2CC4(CC(n5cnc(C(F)(F)F)n5)C4)C2)C3)cc1 [Example 455, [6-[(4-methylsulfonylphenyl)methyl]-2-azaspiro[3.3]heptan-2-yl]-[6-[3-(trifluoromethyl)-1,2,4-triazol-1-yl]-2-azaspiro[3.3]heptan-2-yl]methanone]",1.25

# From patent US20240199587A1, “HETEROCYCLIC COMPOUNDS” (Hoffmann-La Roche Inc., priority 2021, published 2024)
